Consider one molecule from US11008325B2, “Inhibitors of cancer invasion, attachment, and/or metastasis” (VIRGINIA COMMONWEALTH UNIVERSITY, priority 2016, dated 2021).

The test system of one experiment is U87 cells. Description: trans-well Matrigel invasion assay. The experiment is classed as cell-based, human. The protocol: FIGS. 7A-7B. FIG. 7A. Im-PHFA, primary immortal human fetal astrocyte cells were infected with an MDA-9/Syntenin expression plasmid carrying adenovirus. 48 hrs post-infection both the control and MDA-9/Syntenin overexpressing cells were treated with DMSO or PDZ1i followed by seeding in a trans-well Matrigel invasion assay and stained after 24 hrs. FIG. 7B. T98G and U87 were treated with DMSO or PDZ1i and seeding in a trans-well Matrigel invasion assay and stained after 24 hrs. Invasion was quantified from 4 random fields. Data represents fold changes and average±S.D.
FIGS. 8A-8D. PDZ1i produces similar effects to mda-9/syntenin knockdown post-radiation. FIG. 8A. ImPHFA and U87 cells were treated with 50 μM PDZ1i 2 h prior to radiation and analyzed for colony formation after 14 d. […] U87 cells were treated with 50 μM PDZ1i 2 h prior to radiation and analyzed via MTT assay after 24 h. […] Invasion was quantified from 5 random fields in FIG. 8D. […]
Invasion was measured using 24-well BioCoat cell culture inserts (BD Biosciences, Bedford, Mass.) with an 8-μm-porosity polyethylene terephthalate membrane coated with Matrigel Basement Membrane Matrix (100 μg/cm^2). […] Cells remaining on the upper surface of the filters were removed by wiping with a cotton swab, and invasion was determined by counting the cells that migrated to the lower side of the filter using at least 5 fields per insert at 100× magnification. […]

Another experiment deals with U87-EGFRvIII cells. Description: immunoblot of EGFRvIII/FAK/NF-kB signaling with radiation. The experiment is classed as cell-based, human. How it is done:
FIGS. 9A-9C. PDZ1i treatment impairs EGFRvIII and FAK signaling, as well as EGFRvIII-MDA-9 interaction. FIG. 9A. Immunoblot analysis showing expression of mutated EGFR in U87 or U87EGFRvIII cells. FIG. 9B. Cells were treated with either DMSO or PDZ1i 2 hrs prior to radiation. These cells were subsequently seeded on fibronectin-coated plates and cell lysates were collected after 1 hr and analyzed for protein expression. FIG. 9C. Lysates from cells treated with and without radiation or PDZ1i as indicated were analyzed via immunoprecipitation. Anti-MDA-9, top, and anti-EGFR, bottom, were used to pull down associated complexes, and western blotting was performed with the indicated antibodies. Left lanes include IgG and control input samples.
PDZ1i inhibits EGFRvIII-driven signaling in GBM and reduces MMP secretion. EGFR amplification and mutation is both a common and important alteration in GBM. A particular mutation of this receptor, EGFRvIII, is often co-expressed along with EGFR amplification in GBM. […] U87 cells stably expressing EGFRvIII, U87-EGFRvIII (FIG. 9), were treated with PDZ1i prior to radiation. […]
Preparation of whole-cell lysates and Western blotting analysis was performed as described (5). For densitometry evaluation, X-ray films were scanned and analyzed with ImageJ software (NIH).

In another experiment the test system is B16 cells. Description: B16 experimental lung metastasis. As to conditions: repeated treatment I.P., 30 and 50 mg/kg, 6 injections. The experiment is classed as in vivo, C57BL/6 mice. The protocol: FIG. 57. PDZ1in (113B7) treatment results in marked reduction of B16 experimental lung metastases. C57BU6 mice were inoculated I.V. with B16 cells ([…]) to generate experimental lung metastases. One day after I.V. injection, mice received 30 and 50 mg/kg b.w. PDZ1i I.P. 3× a week for the first two weeks (total 6 injections). After 21 days, mice were sacrificed and lungs were collected, fixed with formalin and examined for nodules. Representative lungs with tumor metastases are shown.
Preliminary studies were performed to determine if administering PDZ1ln (113B7) would affect experimental metastasis. B16, a highly aggressive metastatic mouse melanoma, was intravenously injected resulting in lung nodules within 3 weeks. […] This experiment confirms that treatment with PDZ1in targeting MDA-9/Syntenin can directly prevent formation of lung metastases in vivo.

Structures are written as SMILES.

For the molecule `Cc1cc(NC(=O)c2nc3[nH]c4c(c(=O)n3n2)CCC4)c(C)cc1NC(=O)CCc1nnc(-c2ccccc2)o1` [113B7, N-(2,5-dimethyl-4-(3-(5-phenyl-1,3,4-oxadiazol-2-yl)propanamido)phenyl)-8-oxo-5,6,7,8-tetrahydro-4H-cyclopenta[d][1,2,4]triazolo[1,5-a]pyrimidine-2-carboxamide], in the experiment on U87 cells (50 μM PDZ1i 2 h prior to 2 and 5 Gy), the radiation-induced invasion gains result is on record as “abolished these invasion gains”. In addition, the invasion entry in the experiment with U87 cells (PDZ1i versus DMSO) was “effectively inhibited invasion”. Also, in the experiment with U87-EGFRvIII cells (PDZ1i prior to radiation), the “FAK activation after radiation” value is on record as “nullified”. Also, the phospho-EGFR entry in the experiment on U87-EGFRvIII cells (radiated and non-radiated cells) was “significantly reduced”. Besides, the “number of lung nodules” value in the experiment with B16 cells is recorded as “significantly reduced the number of lung nodules”.
